Results taken from paper PMC3678964 (Journal of medicinal chemistry, 2012).

Target: T1, transmembrane domain-deleted rat FAAH (ΔTM rFAAH) (Rattus norvegicus, UniProt P97612)
T1 sequence (P97612 30-579 limits assumed): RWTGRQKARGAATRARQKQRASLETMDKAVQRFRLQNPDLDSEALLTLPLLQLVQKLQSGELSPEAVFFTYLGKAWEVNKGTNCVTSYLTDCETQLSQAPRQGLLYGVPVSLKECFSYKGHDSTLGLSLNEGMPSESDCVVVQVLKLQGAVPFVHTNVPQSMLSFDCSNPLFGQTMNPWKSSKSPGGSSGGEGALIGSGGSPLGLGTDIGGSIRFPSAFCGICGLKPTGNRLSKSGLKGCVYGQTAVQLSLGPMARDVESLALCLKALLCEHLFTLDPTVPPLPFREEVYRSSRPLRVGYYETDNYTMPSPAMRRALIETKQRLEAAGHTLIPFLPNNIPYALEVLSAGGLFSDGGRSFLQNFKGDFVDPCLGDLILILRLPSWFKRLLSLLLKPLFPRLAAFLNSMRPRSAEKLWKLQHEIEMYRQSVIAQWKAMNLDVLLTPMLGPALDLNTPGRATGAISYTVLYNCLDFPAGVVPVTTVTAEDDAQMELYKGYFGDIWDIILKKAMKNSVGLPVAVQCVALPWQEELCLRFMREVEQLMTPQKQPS
Details: phenyl ring substitution of phenylheptyl template 11e

SMILES: O=S(=O)(F)CCCCCCCc1ccccc1OCc1ccccc1 [20c, 7-(2-Benzyloxyphenyl)heptanesulfonyl fluoride]
- increase in FAAH inhibitory potency relative to 11e: 9-10 fold

SMILES: O=S(=O)(F)CCCCCCCc1cccc(O)c1 [21b, 7-(3-Hydroxyphenyl)heptanesulfonyl fluoride]
- increase in FAAH inhibitory potency relative to 11e: 15- to 31 fold

SMILES: O=S(=O)(F)CCCCCCCc1ccccc1O [21c, 7-(2-Hydroxyphenyl)heptanesulfonyl fluoride]
- increase in FAAH inhibitory potency relative to 11e: 15- to 31 fold
